Reference: patent publication US20080221100A1, “SOLUBLE EPOXIDE HYDROLASE INHIBITORS” (Arete Therapeutics, Inc., priority 2006, published 2008)

Key:
[1] = system: soluble epoxide hydrolase (sEH); test: Fluorescent assay for mouse and human soluble epoxide hydrolase (CMNPC substrate); assay type: biochemical, mouse or human, not specified
Excerpt: Fluorescent Assay for Mouse and Human Soluble Epoxide Hydrolase Recombinant mouse sEH (MsEH) and human sEH (HsEH) were produced in a baculovirus expression system as previously reported. Grant et al., J. Biol. Chem., 268:17628-17633 (1993); Beetham et al., Arch. Biochem. Biophys., 305:197-201 (1993). The expressed proteins were purified from cell lysate by affinity chromatography. Wixtrom et al., Anal. Biochem., 169:71-80 (1988). Protein concentration was quantified using the Pierce BCA assay using bovine serum albumin as the calibrating standard. […] They contained no detectable esterase or glutathione transferase activity which can interfere with the assay. The assay was also evaluated with similar results in crude cell lysates or homogenate of tissues. The IC50s for each inhibitor were determined according to the following procedure: Substrate: [drawing 155] […] Jones P. D. et al.; Analytical Biochemistry 2005; 343: pp. 66-75) Solutions: Bis/Tris HCl 25 mM pH 7.0 containing 0.1 mg/mL of BSA (buffer […] at 0.25 mM in DMSO. Mother solution of enzyme in buffer A (Mouse sEH at 6 μg/mL and Human sEH at 5 μg/mL). Inhibitor dissolved in DMSO at the appropriate concentration. Protocol: In a black 96 well plate, fill all the wells with 150 μL of buffer A. Add 2 μL of DMSO in well A2 and A3, and then add 2 μL of inhibitor solution in A1 and A4 through A12. Add 150 μL of buffer A in row A, then mix several time and transfer 150 μL to row B. Repeat this operation up to row H. The 150 μL removed from row H is discarded. Add 20 μL of buffer A in column 1 and 2, then add 20 μL of enzyme solution to column 3 to 12. Incubate the plate for 5 minutes in the plate reader at 30° C. During incubation prepare the working solution of substrate by mixing 3.68 mL of buffer A (4×0.920 mL) with 266 μL (2×133 μL) of substrate solution). At t=0, add 30 μL of working substrate solution with multi-channel pipette labeled “Briggs 303” and start the reading ([S]final: 5 μM). Read with ex: 330 nm (20 nm) and em: 465 nm (20 nm) every 30 second for 10 minutes. The velocities are used to analyze and calculate the IC50s.

| SMILES | % Inhibition ([1]; Conc 500 nM) | melting point | % Inhibition ([1]; Conc 50 nM) | % Inhibition ([1]; Conc 200 nM) |
| --- | --- | --- | --- | --- |
| O=C(Nc1ccc(F)cc1)NC1CCN(S(=O)(=O)c2ccc(Cl)cc2)CC1 [Compound 19, 1-[1-(4-Chloro-benzenesulfonyl)-piperidin-4-yl]-3-(4-fluoro-phenyl)-urea] | 85% | 160 to 162 °C |  |  |
| O=C(Nc1ccc(C(F)(F)F)cc1)NC1CCN(S(=O)(=O)c2cccc(C(F)(F)F)c2)CC1 [Compound 20, 1-[1-(3-Trifluoromethyl-benzenesulfonyl)-piperidin-4-yl]-3-(4-trifluoromethyl-phenyl)-urea] |  |  | 96% |  |
| CC(=O)N1CCC(NC(=O)Nc2ccc(F)cc2)CC1 [Compound 21, 1-(1-Acetyl-piperidin-4-yl)-3-(4-fluoro-phenyl)-urea] | 74% | 146 to 148 °C |  |  |
| O=C(Nc1cccc(F)c1)NC1CCN(S(=O)(=O)c2ccccc2)CC1 [Compound 22, 1-(1-Benzenesulfonyl-piperidin-4-yl)-3-(3-fluoro-phenyl)-urea] |  | 186 to 188 °C | 82% |  |
| O=C(Nc1cccc(F)c1)NC1CCN(S(=O)(=O)c2ccc(Cl)cc2)CC1 [Compound 23, 1-[1-(4-Chloro-benzenesulfonyl)-piperidin-4-yl]-3-(3-fluoro-phenyl)-urea] |  | 245 to 248 °C | 91% |  |
| CS(=O)(=O)N1CCC(NC(=O)Nc2cccc(C(F)(F)F)c2)CC1 [Compound 24, 1-(1-Methanesulfonyl-piperidin-4-yl)-3-(3-trifluoromethyl-phenyl)-urea] |  |  | 86% |  |
| CC(=O)N1CCC(NC(=O)Nc2cccc(C(F)(F)F)c2)CC1 [Compound 25, 1-(1-Acetyl-piperidin-4-yl)-3-(3-trifluoromethyl-phenyl)-urea] |  |  | 68% |  |
| O=C(Nc1cccc(C(F)(F)F)c1)NC1CCN(S(=O)(=O)c2ccccc2)CC1 [Compound 26, 1-(1-Benzenesulfonyl-piperidin-4-yl)-3-(3-trifluoromethyl-phenyl)-urea] |  |  | 90% |  |
| CS(=O)(=O)N1CCC(NC(=O)Nc2ccc(F)cc2)CC1 [Compound 27, 1-(4-Fluoro-phenyl)-3-(1-methanesulfonyl-piperidin-4-yl)-urea] |  | 186 to 188 °C | 80% |  |
| O=C(Nc1cccc(F)c1)NC1CCN(S(=O)(=O)c2cccc(C(F)(F)F)c2)CC1 [Compound 28, 1-(3-Fluoro-phenyl)-3-[1-(3-trifluoromethyl-benzenesulfonyl)-piperidin-4-yl]-urea] |  | 86 to 88 °C | 94% |  |
| O=C(Nc1cccc(C(F)(F)F)c1)NC1CCN(S(=O)(=O)c2ccc(C(F)(F)F)cc2)CC1 [Compound 29, 1-[1-(4-Trifluoromethyl-benzenesulfonyl)-piperidin-4-yl]-3-(3-trifluoromethyl-phenyl)-urea] |  |  | 95% |  |
| O=C(Nc1cccc(C(F)(F)F)c1)NC1CCN(S(=O)(=O)c2ccc(Cl)cc2)CC1 [Compound 30, 1-[1-(4-Chloro-benzenesulfonyl)-piperidin-4-yl]-3-(3-trifluoromethyl-phenyl)-urea] |  | 116 to 118 °C | 90% |  |
| CS(=O)(=O)N1CCC(NC(=O)Nc2cccc(F)c2)CC1 [Compound 31, 1-(3-Fluoro-phenyl)-3-(1-methanesulfonyl-piperidin-4-yl)-urea] | 80% | 212 to 214 °C |  |  |
| CC(=O)N1CCC(NC(=O)Nc2cccc(F)c2)CC1 [Compound 32, 1-(1-Acetyl-piperidin-4-yl)-3-(3-fluoro-phenyl)-urea] | 80% | 112 to 114 °C |  |  |
| O=C(Nc1ccc(C(F)(F)F)cc1)NC1CCN(C(=O)Cc2c[nH]cn2)CC1 [Compound 33, 1-[1-(2-1H-Imidazol-4-yl-acetyl)-piperidin-4-yl]-3-(4-trifluoromethyl-phenyl)-urea] |  |  | 72% |  |
| O=C(Nc1ccc(Cl)cc1)NC1CCN(C(=O)Cc2c[nH]cn2)CC1 [Compound 34, 1-(4-Chloro-phenyl)-3-[1-(2-1H-imidazol-4-yl-acetyl)-piperidin-4-yl]-urea] | 80% |  |  |  |
| Cn1cnc(C(=O)N2CCC(NC(=O)Nc3ccc(C(F)(F)F)cc3)CC2)c1 [Compound 35, 1-[1-(1-Methyl-1H-imidazole-4-carbonyl)-piperidin-4-yl]-3-(4-trifluoromethyl-phenyl)-urea] |  |  | 89% |  |
| O=C(Nc1ccc(Cl)cc1)NC1CCN(C(=O)c2ccc(N3CCOCC3)cc2)CC1 [Compound 36, 1-(4-Chlorophenyl)-3-(1-(4-morpholinobenzoyl)piperidin-4-yl)urea] |  | 303 to 308 °C | 95% |  |
| O=C(Nc1ccc(C(F)(F)F)cc1)NC1CCN(C(=O)c2ccc(N3CCOCC3)cc2)CC1 [Compound 37, 1-(1-(4-Morpholinobenzoyl)piperidin-4-yl)-3-(4-(trifluoromethyl)phenyl)urea] |  | 312 to 315 °C | 98% |  |
| CC(C)(C)OC(=O)C(C)(C)Oc1ccc(C(=O)N2CCC(NC(=O)Nc3ccc(C(F)(F)F)cc3)CC2)cc1 [Compound 38, Tert-butyl 2-methyl-2-(4-(4-(3-(4-(trifluoromethyl)phenyl)ureido)piperidine-1-carbonyl)phenoxy)propanoate] |  | 206 to 208 °C | 89% |  |
| Cc1nc(C(=O)N2CCC(NC(=O)Nc3ccc(C(F)(F)F)cc3)CC2)c(C)o1 [Compound 39, 1-(1-(2,5-Dimethyloxazole-4-carbonyl)piperidin-4-yl)-3-(4-(trifluoromethyl)phenyl)urea] |  | 217 to 219 °C | 92% |  |
| CC(C)(Oc1ccc(C(=O)N2CCC(NC(=O)Nc3ccc(C(F)(F)F)cc3)CC2)cc1)C(=O)O [Compound 40, 2-Methyl-2-(4-(4-(3-(4-(trifluoromethyl)phenyl)ureido)piperidine-1-carbonyl)phenoxy)propanoic acid] |  | 197 to 199 °C | 68% |  |
| CC(C)(C)C(=O)N1CCC(NC(=O)Nc2ccc(C(F)(F)F)cc2)CC1 [Compound 41, 1-(1-Pivaloylpiperidin-4-yl)-3-(4-(trifluoromethyl)phenyl)urea] |  | 263 to 265 °C | 97% |  |
| CC(C)S(=O)(=O)N1CCC(NC(=O)Nc2ccc(C(F)(F)F)cc2)CC1 [Compound 42, 1-(1-(Isopropylsulfonyl)piperidin-4-yl)-3-(4-(trifluoromethyl)phenyl)urea] |  |  | 93% |  |
| CC(=O)N1CCC(NC(=O)Nc2ccc(Br)cc2)CC1 [Compound 43, 1-(1-acetylpiperidin-4-yl)-3-(4-bromophenyl)urea] |  | 213 to 216 °C |  |  |
| CC(C)S(=O)(=O)N1CCC(NC(=O)Nc2ccc(Br)cc2)CC1 [Compound 44, 1-(4-bromophenyl)-3-(1-(isopropylsulfonyl)piperidin-4-yl)urea] |  | 240 to 242 °C |  |  |
| CC(C)C(=O)N1CCC(NC(=O)Nc2ccc(C(F)(F)F)cc2)CC1 [Compound 45, 1-(1-isobutyrylpiperidin-4-yl)-3-(4-(trifluoromethyl)phenyl)urea] |  |  |  | 97% |
| CC(C)C(=O)N1CCC(NC(=O)Nc2ccc(Br)cc2)CC1 [Compound 46, 1-(4-bromophenyl)-3-(1-isobutyrylpiperidin-4-yl)urea] |  | 193 to 204 °C |  |  |
| CC(C)(O)CCC(=O)N1CCC(NC(=O)Nc2ccc(C(F)(F)F)cc2)CC1 [Compound 47, 1-(1-(4-hydroxy-4-methylpentanoyl)piperidin-4-yl)-3-(4-(trifluoromethyl)phenyl)urea] |  | 184 to 186 °C |  | 93% |
| CC(C)(C)CC(=O)N1CCC(NC(=O)Nc2ccc(C(F)(F)F)cc2)CC1 [Compound 48, 1-(1-(3,3-dimethylbutanoyl)piperidin-4-yl)-3-(4-(trifluoromethyl)phenyl)urea] |  |  |  | 100% |
